Assay results published in patent US20090105278A1, “Selective inhibitors of human corticosteroid syntheses” (Universitat Des Saarlandes, priority 2004, published 2009).
pIC50: −log10 of the molar value. Structures can show the parent of a compound that is named as a salt. Where two headings read alike, the source gives them in different places.

Key:
[1] = target: T1, human CYP11B2 (Homo sapiens, UniProt P19099); experiment: V79 MZh 11B2 cells inhibition test; format: cell-based; parameters: expressed in transfected cells; host or cells: V79 MZh11B2 (Chinese hamster lung fibroblasts); conditions: for pIC50: hamster fibroblasts which express human CYP11B2, deoxycorticosterone substrate 100 nM, read-out: IC50 V79 11B2 hCYP11B2
T1 sequence (P19099 25-503): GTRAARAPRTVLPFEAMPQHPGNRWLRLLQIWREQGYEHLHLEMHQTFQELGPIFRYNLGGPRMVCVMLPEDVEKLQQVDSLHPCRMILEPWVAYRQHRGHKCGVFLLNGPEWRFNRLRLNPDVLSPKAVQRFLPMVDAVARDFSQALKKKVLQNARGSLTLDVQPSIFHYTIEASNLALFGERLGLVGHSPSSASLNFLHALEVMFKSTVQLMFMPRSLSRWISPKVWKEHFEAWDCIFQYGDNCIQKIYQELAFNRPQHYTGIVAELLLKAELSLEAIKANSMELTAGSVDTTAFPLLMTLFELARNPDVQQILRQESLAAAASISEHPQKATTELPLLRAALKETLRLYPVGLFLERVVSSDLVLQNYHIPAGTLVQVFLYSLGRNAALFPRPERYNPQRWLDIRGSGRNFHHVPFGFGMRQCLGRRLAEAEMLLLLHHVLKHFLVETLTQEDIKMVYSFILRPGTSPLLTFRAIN
Protocol: Both cell lines were cultured in DMEM^+ containing […] and the antibiotics penicillin and streptomycin (10%) for protection from bacterial contamination. The cells were passaged every 2-3 days after treatment with trypsin/EDTA because the doubling rate was 1-2 days depending on the number of cells. […] When there was further need, freshly thawed cells were employed.
Thereafter, the plate was stored at 37° C. and […] in a CO2 incubator. The V79 MZh 11B1 cells were incubated for 120 min, and the V79 MZh 11B2 cells were incubated for 40 min. Controls without inhibitor were treated in the same way. The enzyme reactions were quenched by extracting the supernatant with 500 μl of EtOAc. The samples were centrifuged (10,000 g, 2 min), the solvent was removed and evaporated.
For V79 MZh11B2, the conversion rate was obtained in accordance with equation 3: […]
It was calculated by determining the percent inhibition for at least 3 different inhibitor concentrations, which must all be in the linear range of the sigmoidal IC50 curve (log C/% inhibition).
The calculation was effected by linear regression. The values determined were used only if they formed a straight line with a reliability of […].
The plate was developed twice with the mobile solvent chloroform:methanol:water (300:20:1). Unlabeled 11-deoxycorticosterone and corticosterone were applied as a reference for the CYP11B1 reaction. For the CYP11B2 reaction, 11-deoxycorticosterone, corticosterone, 18-hydroxycorticosterone and aldosterone were used as references. The detection of the unlabeled references was effected at 260 nm. Subsequently, imaging plates (BAS MS2340, for ^14C samples, Raytest, Straubenhardt, Germany) were exposed to the HPTLC plates for 48 h. The imaging plates were scanned with the phosphoimager system Fuji FLA 3000 (Raytest, Straubenhardt, Germany), and the steroids were quantified.

[2] = target: T1, human CYP11B2; experiment: Screening test in transgenic fission yeast (S. pombe PE1) expressing human CYP11B2; format: cell-based; parameters: expressed in transfected cells
Outline: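 Deoxycorticosterone conversion to corticosterone, 18-hydroxycorticosterone and aldosterone assessed after EtOAc extraction by HPTLC with 14C phosphorimaging. Conversion rate calculated from quantified steroid spots.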

[3] = target: T2, human placental CYP19 (Homo sapiens, UniProt P11511); experiment: IC50 of CYP19 (human placental microsomes); format: biochemical
T2 construct: The enzyme was obtained from the microsome fraction of fresh human placenta; from tissue; host or cells: human placenta, microsomal fraction
T2 sequence (P11511 1-503): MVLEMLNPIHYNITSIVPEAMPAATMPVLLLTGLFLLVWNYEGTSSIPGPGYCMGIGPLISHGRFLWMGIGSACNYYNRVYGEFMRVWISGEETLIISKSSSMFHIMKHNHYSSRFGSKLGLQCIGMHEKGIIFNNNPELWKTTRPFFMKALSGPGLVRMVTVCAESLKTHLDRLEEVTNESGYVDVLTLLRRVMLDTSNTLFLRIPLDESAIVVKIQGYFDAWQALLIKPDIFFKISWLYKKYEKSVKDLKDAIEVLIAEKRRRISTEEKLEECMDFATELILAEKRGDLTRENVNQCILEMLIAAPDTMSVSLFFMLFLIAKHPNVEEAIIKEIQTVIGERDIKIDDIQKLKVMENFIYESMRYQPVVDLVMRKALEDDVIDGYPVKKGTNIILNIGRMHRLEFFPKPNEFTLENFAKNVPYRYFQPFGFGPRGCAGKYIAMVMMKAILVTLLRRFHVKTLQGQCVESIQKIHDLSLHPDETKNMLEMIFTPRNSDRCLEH
Protocol: The isolated microsomes were suspended in a minimum volume of phosphate buffer (0.05 M; pH 7.4; […]). In addition, DTT (10 mM) and EDTA (1 mM) were added to protect the enzyme from degradation reactions.
[…] […] The compounds to be tested were dissolved in DMSO and diluted with buffer to the desired concentration. The final DMSO concentration of the control and inhibitor incubations was about 20%. Each vessel was preincubated in a water bath at 30° C. for 5 min. The reaction was started by adding the microsomal protein (0.1 mg). The total volume of each mixture was 200 μl. After 14 min, the reaction was quenched by adding 200 μl of ice cold 1 mM HgCl2 solution. Two hundred microliters of a 2% aqueous suspension of dextran-coated charcoal, DCC) was added for absorbing the steroids, and the vessels were shaken for 20 min. Thereafter, the charcoal was centrifuged off at 1500 g for 5 min. The radioactive water present in the supernatant (^3H2O) was assayed by scintillation measurement using an LKB-Wallac beta counter. The calculation of the IC50 values was effected by a semilogarithmic plot of the percent inhibition against the inhibitor concentration.

[4] = S. pombe cells which express human CYP11B2, deoxycorticosterone substrate 100 nM, inhibitor 500 nM, read-out: % Inhibition human hCYP11B2
[5] = human placental CYP19, testosterone substrate 2.5 μM
[6] = read-out: % Inhibition human hCYP11B2
[7] = S. pombe cells which express human CYP11B2, deoxycorticosterone substrate 100 nM, inhibitor 500 nM

Row | pIC50 [1] | inhibition at 0.5 µM [2, 4] [%] | pIC50 [3, 5] | Molecule | also measured
1 | 7.24 | 60 | 6.14 | Fc1ccc2c(c1)CC/C2=C\c1cccc2cnccc12 [Compound 30a, 5-[(E)-(5-Fluoro-2,3-dihydro-1H-indane-1-ylidene)methyl]isoquinoline Hydrochloride] | –
2 | 7.58 | 81 | 5.25 | COc1ccc2c(c1)CC/C2=C/c1cccnc1 [Compound 11b, 3-[(Z)-(5-Methoxy-2,3-dihydro-1H-indane-1-ylidene)methyl]pyridine Hydrochloride] | –
3 | 8.06 | 92 | 6.89 | Clc1cccc2c1CC/C2=C\c1cccnc1 [Compound 25a, 3-[(E)-(4-Chloro-2,3-dihydro-1H-indane-1-ylidene)methyl]pyridine Hydrochloride] | –
4 | 7.57 | 76 | 5.01 | COc1cccc2c1/C(=C/c1cccnc1)CC2 [Compound 26a, 3-[(E)-(7-Methoxy-2,3-dihydro-1H-indane-1-ylidene)methyl]pyridine Hydrochloride] | –
5 | 7.25 | 52 | 5.95 | COc1ccc2c(c1)CCC/C2=C\c1cccnc1 [Compound 13a, 3-[(E)-(6-Methoxy-3,4-dihydronaphthalene-1(2H)-ylidene)methyl]pyridine Hydrochloride] | –
6 | 7.10 | 67 | 5.15 | CCOc1ccc2c(c1)CC/C2=C\c1cccnc1 [Compound 19a, 3-[(E)-(5-Ethoxy-2,3-dihydro-1H-indane-1-ylidene)methyl]pyridine Hydrochloride] | –
7 | 6.77 | 58 | 5.13 | Brc1ccc2c(c1)CC/C2=C/c1cccnc1 [Compound 9b, 3-[(Z)-(5-Bromo-2,3-dihydro-1H-indane-1-ylidene)methyl]pyridine Hydrochloride] | –
8 | 6.61 | 52 | 5.11 | CCOc1ccc2c(c1)CC/C2=C/c1cccnc1 [Compound 19b, 3-[(Z)-(5-Ethoxy-2,3-dihydro-1H-indane-1-ylidene)methyl]pyridine Hydrochloride] | –
9 | 6.97 | 52 | 5.33 | Cc1cccc2c1CC/C2=C\c1cccnc1 [Compound 23a, 3-[(E)-(4-Methyl-2,3-dihydro-1H-indane-1-ylidene)methyl]pyridine Hydrochloride] | –
10 | 7.51 | 83 | 6.64 | Clc1cccc2c1CC/C2=C/c1cccnc1 [Compound 25b, 3-[(Z)-(4-Chloro-2,3-dihydro-1H-indane-1-ylidene)methyl]pyridine Hydrochloride] | –
11 | 7.43 | 60 | 5.11 | Brc1ccc2c(c1)CC/C2=C\c1cccnc1 [Compound 9a, 3-[(E)-(5-Bromo-2,3-dihydro-1H-indane-1-ylidene)methyl]pyridine Hydrochloride] | –
12 | 7.58 | 75 | 5.37 | Clc1ccc2c(c1)CC/C2=C\c1cccnc1 [Compound 7a, 3-[(E)-(5-Chloro-2.3-dihydro-1H-indane-1-ylidene)methyl]pyridine Hydrochloride] | –
13 | 6.03 | – | 4.90 | C(=C1\CCc2ccccc21)/c1ccncc1 [Compound 2b, 4-[(Z)-2,3-Dihydro-1H-indane-1-ylidenemethyl]pyridine oxalate] | –

Continued, molecule first:

Row | Molecule | pIC50 [1] | inhibition at 0.5 µM [2, 4] [%] | pIC50 [3, 5] | also measured
14 | Fc1ccc2c(c1)CC/C2=C/c1ccncc1 [Compound 6b, 4-[(Z)-(5-Fluoro-2,3-dihydro-1H-indane-1-ylidene)methyl]pyridine Hydrochloride] | 7.47 | – | 6.10 | inhibition at 0.5 µM [2, 6]: 77%
15 | Fc1ccc2c(c1)CC/C2=C/c1cccnc1 [Compound 5b, 3-[(Z)-(5-Fluoro-2,3-dihydro-1H-indane-1-ylidene)methyl]pyridine Hydrochloride] | 7.97 | – | 5.60 | inhibition at 0.5 µM [2, 6]: 89%; inhibition at 0.5 µM ([2]; read-out: S. pombe PE1 CYP11B2 DOC % inhibition): 88.6%
16 | Fc1ccc2c(c1)CC/C2=C\c1cccnc1 [Compound 5a, 3-[(E)-(5-Fluoro-2,3-dihydro-1H-indane-1-ylidene)methyl]pyridine Hydrochloride] | 8.17 | 88 | 5.60 | –
17 | 5-[(Z)-3,4-Dihydronaphth-1(2H)-ylidenemethyl]-1H-imidazolium oxalate [Compound 41b] | – | – | 6.72 | % Inhibition human hCYP11B2 [2, 7]: 82%
18 | C(=C1\CCc2ccccc21)/c1cccnc1.Cl [Compound 1b, 3-[(Z)-2,3-Dihydro-1H-indane-1-ylidenemethyl]pyridine Hydrochloride] | 7.04 | – | – | % Inhibition human hCYP11B2 [2, 7]: 83%; pIC50 [3]: 5.45
19 | 5-[(Z)-(5-Chloro-2,3-dihydro-1H-indene-1-ylidene)methyl]-1H-imidazolium oxalate [Compound 48b] | – | – | 7.41 | Selectivity factor IC50 (CYP11B1)/IC50 (CYP11B2) ([1]; V79 cells expressing human CYP11B1 or CYP11B2): five times; % Inhibition human hCYP11B2 [2, 7]: 80%
20 | C(=C1\CCc2ccccc21)/c1cnc[nH]1 [Compound 42b, 5-[(Z)-2,3-Dihydro-1H-ind-1-ylidenemethyl]-1H-imidazolium oxalate] | 7.96 | 81 | – | –
21 | C(=C1/CCc2ccccc21)/c1cnc[nH]1 [Compound 42a, 5-[(E)-2,3-Dihydro-1H-indane-1-ylidenemethyl]-1H-imidazole] | 7.39 | 77 | – | –
22 | Brc1ccc2c(c1)CC/C2=C\c1ccncc1 [Compound 10a, 4-[(E)-(5-Bromo-2,3-dihydro-1H-indane-1-ylidene)methyl]pyridine Hydrochloride] | 5.58 | – | – | inhibition at 0.5 µM [2, 6]: 17%
23 | 5-[(Z)-(5-Bromo-2,3-dihydro-1H-indene-1-ylidene)methyl]-1H-imidazolium oxalate [Compound 49b] | 7.99 | – | – | % Inhibition human hCYP11B2 [2, 7]: 76%
